We go through one molecule from ChEMBL document CHEMBL1128376, “Carbethoxylating agents as inhibitors of aldehyde dehydrogenase” (J Med Chem, 1995).

For this assay, the system named is aldehyde dehydrogenase (Saccharomyces cerevisiae). Nature of the assay: In vitro inhibition against yeast aldehyde dehydrogenase; IA means In active.

Molecules are shown by their SMILES.

Take `CCOC=O` [ETHOXYCARBONYL GROUP]: the IC50 entry was “Not Active”.
